Data reported in patent publication US20240216402A1, “PHARMACEUTICAL COMPOSITION, AND PREPARATION METHOD THEREFOR AND APPLICATION THEREOF” (QILU PHARMACEUTICAL CO., LTD., priority 2021, published 2024).
Converted amounts (≈) assume the structure as drawn. Each block holds one compound with its values, some of them ahead of it.

Assays:
[1] = particle size distribution of raw material samples; assay type: physicochemical
Text: In the present invention, D50 refers to the particle size corresponding to the cumulative volume distribution percentage of spirocyclic aryl phosphorus oxides or pharmaceutically acceptable salts thereof reaching 50% measured from a small particle size; D90 refers to the particle size corresponding to the cumulative volume distribution percentage of spirocyclic aryl phosphorus oxides or pharmaceutically acceptable salts thereof reaching 90% measured from a small particle size.

[2] = Determination of solubility in buffers at different pHs (saturated solubility by HPLC); assay type: physicochemical; conditions: for solubility at 24 h: thermodynamic from solid, 37° C.
Procedure: (§1) The solubilities of spirocyclic aryl phosphorus oxides in buffers at different pHs were determined. Nine test samples of 4 mg were each weighed and added to sample bottles of 1.5 mL, and then different solvents (0.1 mol/L HCl, 0.01 mol/L HCl, pH3.5 acetate buffer, pH4.5 acetate buffer, pH5.5 phosphate buffer, pH6.5 phosphate buffer, pH6.8 phosphate buffer, pH7.5 phosphate buffer and water) of 1 mL were added. According to the dissolution, the raw material compounds were continuously added to form a saturated solution. A magneton was added to the saturated solution and then stirred on a magnetic agitator (temperature was 37° C., away from light). After stirring for 24 hours, the samples were taken and centrifuged, and the residual solid samples in the lower layer were tested by X-ray powder diffraction (XRPD). The upper sample was filtered by a filter membrane, the final pH value of the filtrate was measured, and the saturated solubility of the compound was determined by high performance liquid chromatography (HPLC).

[3] = solubility in solvents (description of the substance); assay type: physicochemical
Text: (§2) The solubility of the drug directly influences the dissolution rate of the composition containing the drug, which in turn influences the bioavailability of the pharmaceutical composition. Therefore, how to improve the dissolution rate of pharmaceutical compositions containing spirocyclic aryl phosphorus oxide in solvents other than hydrochloric acid has become an urgent problem to be solved.

[4] = tested on: other related serine, threonine and tyrosine except EGFR wild type; experiment: kinase selectivity; assay type: biochemical; conditions: in the detected concentration range
[5] = XRPD of residual solid in the solubility test; assay type: physicochemical; conditions: 24 hrs
Procedure: as §1

[6] = hygroscopicity (description of the substance); assay type: physicochemical
Text: as §2

Compound: COc1cc(N2CCC3(CCN(C)CC3)CC2)ccc1Nc1ncc(Cl)c(Nc2ccccc2P(C)(C)=O)n1 [Sample 1]
Particle size D10 (μm) [1]: 0.7 μm
Particle size D50 (μm) [1]: 5.4 μm
Particle size D90 (μm) [1]: 11.6 μm

Compound: COc1cc(N2CCC3(CCN(C)CC3)CC2)ccc1Nc1ncc(Cl)c(Nc2ccccc2P(C)(C)=O)n1 [Sample 5]
Particle size D10 (μm) [1]: 1.8 μm
Particle size D50 (μm) [1]: 16.1 μm
Particle size D90 (μm) [1]: 69 μm

Compound: COc1cc(N2CCC3(CCN(C)CC3)CC2)ccc1Nc1ncc(Cl)c(Nc2ccccc2P(C)(C)=O)n1 [Sample 6]
Particle size D10 (μm) [1]: 2.3 μm
Particle size D50 (μm) [1]: 18.2 μm
Particle size D90 (μm) [1]: 79.6 μm

Compound: COc1cc(N2CCC3(CCN(C)CC3)CC2)ccc1Nc1ncc(Cl)c(Nc2ccccc2P(C)(C)=O)n1 [Sample 8]
Particle size D10 (μm) [1]: 7.8 μm
Particle size D50 (μm) [1]: 63.1 μm
Particle size D90 (μm) [1]: 193 μm

Compound: COc1cc(N2CCC3(CCN(C)CC3)CC2)ccc1Nc1ncc(Cl)c(Nc2ccccc2P(C)(C)=O)n1 [spirocyclic aryl phosphorus oxide, (2-((5-chloro-2-((2-methoxy-4-(9-methyl-3,9-diazaspiro[5.5]undecan-3-yl)phenyl)amino)pyrimidin-4-yl)amino)phenyl)dimethylphosphine oxide]
Dose/solubility (mL, in 60 mg specifications) ([2]; 0.01 mol/L HCl (pH2.02)): 8.69 mL
Conclusions (solubility class) ([2]; 0.1 mol/L HCl (pH 1.02)): soluble (10 ml to less than 30 ml)
Dose/solubility (mL, in 60 mg specifications) ([2]; 0.1 mol/L HCl (pH 1.02)): 1.12 mL
solubility at 24 h ([2]; pH 2.02, simulated gastric fluid, 0.01 mol/L HCl (pH2.02)): 6900 µg/mL (≈ 12.1 mM)
solubility at 24 h ([2]; pH 3.5 acetate buffer, aqueous buffer, pH 3.5 buffer (pH 3.53), acetate): 279000 µg/mL (≈ 491 mM)
Dose/solubility (mL, in 60 mg specifications) ([2]; pH 3.5 buffer (pH 3.53)): 0.22 mL
solubility at 24 h ([2]; pH 4.5 acetate buffer, aqueous buffer, pH 4.5 buffer (pH 4.49), acetate): 108000 µg/mL (≈ 190 mM)
Dose/solubility (mL, in 60 mg specifications) ([2]; pH 4.5 buffer (pH 4.49)): 0.56 mL
Dose/solubility (mL, in 60 mg specifications) ([2]; pH 5.5 buffer (pH 5.47)): 8.45 mL
solubility at 24 h ([2]; pH 5.5 phosphate buffer, aqueous buffer, pH 5.5 buffer (pH 5.47), phosphate): 7100 µg/mL (≈ 12.5 mM)
Dose/solubility (mL, in 60 mg specifications) ([2]; pH 6.5 buffer (pH 6.45)): 5.41 mL
solubility at 24 h ([2]; pH 6.5 phosphate buffer, aqueous buffer, pH 6.5 buffer (pH 6.45), phosphate): 11100 µg/mL (≈ 19.5 mM)
Dose/solubility (mL, in 60 mg specifications) ([2]; pH 6.8 buffer (pH 6.83)): 16.67 mL
solubility at 24 h ([2]; pH 6.8 phosphate buffer, aqueous buffer, pH 6.8 buffer (pH 6.83), phosphate): 3600 µg/mL (≈ 6.33 mM)
Dose/solubility (mL, in 60 mg specifications) ([2]; pH 7.5 buffer (pH 7.53)): 70.59 mL
solubility at 24 h ([2]; pH 7.5 phosphate buffer, aqueous buffer, pH 7.5 buffer (pH 7.53), phosphate): 850 µg/mL (≈ 1.49 mM)
solubility at 24 h ([2]; simulated gastric fluid, 0.1 mol/L HCl (pH 1.02)): 53400 µg/mL (≈ 93.8 mM)
solubility at 24 h ([2]; water (pH 6.33)): 60 µg/mL (≈ 0.105 mM)
Dose/solubility (mL, in 60 mg specifications) ([2]; water (pH 6.33)): >250 mL
solubility ([3]; 1 mol/L hydrochloric acid solution): easily soluble
solubility ([3]; 1 mol/L sodium hydroxide solution): practically insoluble, or insoluble
solubility ([3]; acetonitrile): slightly soluble
solubility ([3]; dichloromethane): easily soluble
solubility ([3]; ethanol): slightly soluble
solubility ([3]; methanol): sparingly soluble
solubility ([3]; water): slightly soluble
inhibitory activity to other kinases [4]: Low inhibitory activity
XRPD (crystal form of residual solid) ([5]; 0.01 mol/L HCl (pH2.02)): no change
XRPD (crystal form of residual solid) ([5]; 0.1 mol/L HCl (pH 1.02)): no change
XRPD (crystal form of residual solid) ([5]; pH 3.5 buffer (pH 3.53)): no change
XRPD (crystal form of residual solid) ([5]; pH 4.5 buffer (pH 4.49)): no change
XRPD (crystal form of residual solid) ([5]; pH 5.5 buffer (pH 5.47)): no change
XRPD (crystal form of residual solid) ([5]; pH 6.5 buffer (pH 6.45)): no change
XRPD (crystal form of residual solid) ([5]; pH 6.8 buffer (pH 6.83)): no change
XRPD (crystal form of residual solid) ([5]; pH 7.5 buffer (pH 7.53)): no change
XRPD (crystal form of residual solid) ([5]; water (pH 6.33)): no change
hygroscopicity [6]: almost no hygroscopicity

Now from value to compound:

Particle size D10 (μm) [1]: 1.3 μm
Particle size D50 (μm) [1]: 10.1 μm
Particle size D90 (μm) [1]: 27.1 μm
Compound: COc1cc(N2CCC3(CCN(C)CC3)CC2)ccc1Nc1ncc(Cl)c(Nc2ccccc2P(C)(C)=O)n1 [Sample 2]

Particle size D10 (μm) [1]: 6.8 μm
Particle size D50 (μm) [1]: 47.9 μm
Particle size D90 (μm) [1]: 122 μm
Compound: COc1cc(N2CCC3(CCN(C)CC3)CC2)ccc1Nc1ncc(Cl)c(Nc2ccccc2P(C)(C)=O)n1 [Sample 7]

Particle size D10 (μm) [1]: 1.6 μm
Particle size D50 (μm) [1]: 13.0 μm
Particle size D90 (μm) [1]: 40.3 μm
Compound: COc1cc(N2CCC3(CCN(C)CC3)CC2)ccc1Nc1ncc(Cl)c(Nc2ccccc2P(C)(C)=O)n1 [Sample 3]

Particle size D10 (μm) [1]: 5.0 μm
Particle size D50 (μm) [1]: 23.8 μm
Particle size D90 (μm) [1]: 62 μm
Compound: COc1cc(N2CCC3(CCN(C)CC3)CC2)ccc1Nc1ncc(Cl)c(Nc2ccccc2P(C)(C)=O)n1 [Sample 4]
